# Data taken from publication PMC7191384, “Multimodal α-Glucosidase and α-Amylase Inhibition and Antioxidant Effect of the Aqueous and Methanol Extracts from the Trunk Bark of Ceiba pentandra” (BioMed Research International, 2020).
# How the values were obtained:
# [1] = Hydrogen peroxide scavenging activity
# Description: A method previously described by Ruch et al. was used to assess the ability of plant extracts to decompose hydrogen peroxide (H2O2). Briefly, a 40 mM solution of H2O2 prepared in phosphate buffer (pH 7.4) was mixed with graded concentrations (1-300 μg/ml) of extracts or ascorbic acid. After 10 min of incubation, optical densities were read at 230 nm against a blank solution made up of phosphate buffer without H2O2. The percentage of H2O2 scavenging activity was calculated as in the previous test.
# α-glucosidase = target: T1, α-glucosidase (Saccharomyces cerevisiae, UniProt P53341); assay: α-Glucosidase inhibitory test (pNPG); format: biochemical; conditions: according to the efficacy index
# T1 construct: purchased Sigma-Aldrich Chemical Co. (Taufkirchen, Germany)
# Description: The ability of C. pentandra extracts to inhibit the activity of α-glucosidase was assessed according to Kim et al.'s protocol. Shortly, α-glucosidase (1 U/ml) from Saccharomyces cerevisiae was preincubated with 250 μl extracts for 10 minutes. P-nitrophenyl glucopyranoside substrate solution (pNPG, 3 mM) prepared in 20 mM phosphate buffer (pH 6.9) containing 2 mg/ml BSA was added to start the reaction. The reaction mixture was incubated at 37°C for 20 minutes and stopped with 1 ml of Na2CO3 (1 M). α-Glucosidase activity was determined by measuring paranitrophenol released from pNPG at 405 nm. The percent inhibition was calculated as follows: (3) %inhibition=OD control−OD sample/OD control×100.
# [2] = system: BSA oxidation induced by H2O2; assay: H2O2-induced protein oxidation assay (BSA thiol groups); parameters: species or system bovine
# Description: (§1) The effect of plant extracts against protein oxidation was evaluated according to the method of Simplicio et al. with some modifications. Zero point five milliliter aliquots of BSA (30 mg/ml) prepared in phosphate buffer saline (50 mM, pH 7.4) were incubated with 0.5 ml of extracts or gallic acid. Fifteen minutes later, 0.5 ml of H2O2 (20 mM) or AAPH (2′,2′-azobis (2-methylpropionamidine) dihydrochloride) solution (50 mM) in another set of experiment, was added to the reaction medium and incubated at 37°C for 30 minutes and 1 hour, respectively. Proteins were precipitated with ammonium sulfate (70%) followed by vigorous shaking and centrifugation at 3000 rpm. The pellet obtained was resuspended in 1.5 ml of PBS, and 0.2 ml of Ellman's reagent was introduced. The level of thiol groups was measured 10 minutes later at 412 nm.
# [3] = system: BSA oxidation induced by AAPH; assay: AAPH-induced protein oxidation assay (BSA thiol groups); parameters: species or system bovine
# Description: as §1
# [4] = Superoxide anion scavenging test (PMS-NADH/NBT)
# Description: Superoxide anions were generated in a phenazine methosulfate- (PMS-) NADH system. The reaction mixture was made of 0.5 ml test solution, 0.95 ml 0.1 M phosphate buffer (pH 7.4), 0.5 ml […] in phosphate buffer (pH 7.4). Extracts were used at concentrations of 1, 3, 10, 30, 100, and 300 μg/ml. Gallic acid was tested at the same concentrations and used as a reference drug. Reduction of nitroblue tetrazolium was monitored at 560 nm on a Helios Epsilon Spectrophotometer (Thermo Fisher Scientific). The test was carried out in triplicate. The percent inhibition was calculated as follows: […]
# T1 sequence (P53341 whole entry): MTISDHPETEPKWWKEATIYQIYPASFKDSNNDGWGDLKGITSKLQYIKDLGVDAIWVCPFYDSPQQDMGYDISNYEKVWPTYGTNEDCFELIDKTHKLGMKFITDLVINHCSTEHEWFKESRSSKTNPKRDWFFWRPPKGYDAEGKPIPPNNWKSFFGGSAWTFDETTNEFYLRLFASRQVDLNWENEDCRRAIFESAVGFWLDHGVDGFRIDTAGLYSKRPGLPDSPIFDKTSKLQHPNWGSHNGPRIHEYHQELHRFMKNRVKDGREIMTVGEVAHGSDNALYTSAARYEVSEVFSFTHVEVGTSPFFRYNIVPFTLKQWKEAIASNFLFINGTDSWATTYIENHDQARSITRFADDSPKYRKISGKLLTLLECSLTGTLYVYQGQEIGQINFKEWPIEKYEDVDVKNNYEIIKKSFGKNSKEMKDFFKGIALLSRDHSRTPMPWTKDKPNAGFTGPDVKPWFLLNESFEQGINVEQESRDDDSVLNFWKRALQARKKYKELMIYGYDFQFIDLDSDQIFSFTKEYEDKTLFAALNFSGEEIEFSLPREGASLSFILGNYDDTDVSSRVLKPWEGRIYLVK
compound,measurement,setting,value
"O=C1O[C@H]([C@@H](O)CO)C(O)=C1O [Ascorbic acid, ascorbic acid]",Hydrogen peroxide EI (efficiency index),[1],4.77
same,Hydrogen peroxide IC50,"[1]; 1-300 μg/ml, 10 min incubation",13.84 µg/mL
"C[C@H]1O[C@H](O[C@H]2[C@H](O)[C@@H](O)[C@@H](O[C@H]3[C@H](O)[C@@H](O)C(O)O[C@@H]3CO)O[C@@H]2CO)[C@H](O)[C@@H](O)[C@@H]1N[C@H]1C=C(CO)[C@@H](O)[C@H](O)[C@H]1O (stereo partly shown) [Acarbose, acarbose]","α-Glucosidase: inhibitory effect, times greater than that of the methanol extract",α-glucosidase,10 times
same,"α-Glucosidase: inhibitory effect, times the magnitude of the aqueous extract",α-glucosidase,more than 15 times
"O=C(O)c1cc(O)c(O)c(O)c1 [Gallic acid, gallic acid]",H2O2 protein oxidation EI (efficiency index),[2],1.74
same,H2O2 protein oxidation IC50,"[2]; BSA, H2O2 20 mM, 37°C, 30 minutes",29.9 µg/mL
same,AAPH protein oxidation EI (efficiency index),[3],0.64
same,AAPH protein oxidation IC50,"[3]; BSA, AAPH 50 mM, 37°C, 1 hour",90.17 µg/mL
same,"Superoxide anion EI (efficiency index, maximal activity/IC50)",[4],1.43
same,Superoxide anion IC50,[4]; concentrations 1-300 μg/ml,55.66 µg/mL
